Assay [1] deals with T1, RXFP1 (Homo sapiens, UniProt Q9HBX9).
T1 sequence (Q9HBX9 1-757): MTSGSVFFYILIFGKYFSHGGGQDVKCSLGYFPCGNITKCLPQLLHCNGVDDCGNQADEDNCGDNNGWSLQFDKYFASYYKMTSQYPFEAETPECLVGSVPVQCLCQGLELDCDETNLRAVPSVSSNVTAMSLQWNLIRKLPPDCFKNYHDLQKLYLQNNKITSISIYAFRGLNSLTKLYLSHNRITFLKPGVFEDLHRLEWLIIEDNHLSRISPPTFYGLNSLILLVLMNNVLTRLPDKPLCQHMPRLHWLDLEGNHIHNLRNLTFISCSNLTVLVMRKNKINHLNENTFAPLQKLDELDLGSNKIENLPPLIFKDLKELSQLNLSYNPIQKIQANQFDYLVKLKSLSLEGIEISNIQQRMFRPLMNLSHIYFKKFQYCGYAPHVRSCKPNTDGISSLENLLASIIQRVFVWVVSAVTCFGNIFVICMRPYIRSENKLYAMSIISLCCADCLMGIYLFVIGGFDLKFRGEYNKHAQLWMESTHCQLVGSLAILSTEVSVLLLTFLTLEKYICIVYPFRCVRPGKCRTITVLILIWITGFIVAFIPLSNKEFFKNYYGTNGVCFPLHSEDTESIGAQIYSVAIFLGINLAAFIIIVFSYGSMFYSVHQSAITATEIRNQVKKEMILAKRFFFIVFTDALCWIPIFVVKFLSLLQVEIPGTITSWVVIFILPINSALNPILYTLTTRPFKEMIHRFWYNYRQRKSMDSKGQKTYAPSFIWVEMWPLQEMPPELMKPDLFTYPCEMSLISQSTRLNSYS
Nature of the assay: Phospho-VASP (Ser157) MSD assay in EA.hy926_RXFP1 cells. The class given is cell-based. More on the design: expressed in transfected cells; host or cells: EA.hy926 (ATCC CRL-2922), lentiviral transduction, puromycin selection. Conditions: serum-free DMEM, 20 min 37 °C, n = 3, read-out: EC50 [CI95%] VASP phosphorylation on S157. How it is done:
These experiments were conducted according to the MSD protocol (K151FFD-2) and using a Sector 2400 from Mesoscale Discovery. In order to reduce the basal phosphorylation activity of VASP protein, EA.hy926_RXFP1 cells were stimulated with effector solutions in basal DMEM (i.e., without serum). Cells were plated in 96-well plate at a density of 35.000 cells/well overnight in a volume of 200µL of cell culture media. Prior to stimulation, growth medium was discarded, and the cells were washed one time with basal DMEM medium, before being incubated for 4 h with basal DMEM medium at 37 °C in 5% CO2. […] For control cells, 50µL of basal DMEM medium without effector standard solution were added onto the cells. The microplates were incubated for 20 min at 37 °C in 5% CO2. All the following steps were carried-out on ice. Medium was aspirated and the cells were directly lysed by addition of 50μL of complete lysis buffer/well (lysis buffer is provided in the pVASP assay kit and prepared according to MSD instructions). The microplates were placed for 60 min under orbital agitation. The cell lysates were collected in round bottom microplate then stored at − 80 °C until pVASP content determination according to MSD protocol.

The target in assay [2] is T1, RXFP1. Nature of the assay: cAMP production in HEK_RXFP1 cells. Further details: expressed in transfected cells. The format is cell-based. Conditions: HEK_RXFP1 cells (wild type construct), n = 4 experiments in duplicate. In general terms: Changes in cAMP serve as a functional read-out for many G protein-coupled receptors.
The target of assay [3] is T2, RXFP1 (Rattus norvegicus, UniProt Q6R6I6).
T2 construct: measured in conscious telemetered SD rats; tissue Charles River Laboratories; host or cells: whole animal, male Sprague Dawley rats (heart; renal vasculature)
T2 sequence (Q6R6I6 1-758): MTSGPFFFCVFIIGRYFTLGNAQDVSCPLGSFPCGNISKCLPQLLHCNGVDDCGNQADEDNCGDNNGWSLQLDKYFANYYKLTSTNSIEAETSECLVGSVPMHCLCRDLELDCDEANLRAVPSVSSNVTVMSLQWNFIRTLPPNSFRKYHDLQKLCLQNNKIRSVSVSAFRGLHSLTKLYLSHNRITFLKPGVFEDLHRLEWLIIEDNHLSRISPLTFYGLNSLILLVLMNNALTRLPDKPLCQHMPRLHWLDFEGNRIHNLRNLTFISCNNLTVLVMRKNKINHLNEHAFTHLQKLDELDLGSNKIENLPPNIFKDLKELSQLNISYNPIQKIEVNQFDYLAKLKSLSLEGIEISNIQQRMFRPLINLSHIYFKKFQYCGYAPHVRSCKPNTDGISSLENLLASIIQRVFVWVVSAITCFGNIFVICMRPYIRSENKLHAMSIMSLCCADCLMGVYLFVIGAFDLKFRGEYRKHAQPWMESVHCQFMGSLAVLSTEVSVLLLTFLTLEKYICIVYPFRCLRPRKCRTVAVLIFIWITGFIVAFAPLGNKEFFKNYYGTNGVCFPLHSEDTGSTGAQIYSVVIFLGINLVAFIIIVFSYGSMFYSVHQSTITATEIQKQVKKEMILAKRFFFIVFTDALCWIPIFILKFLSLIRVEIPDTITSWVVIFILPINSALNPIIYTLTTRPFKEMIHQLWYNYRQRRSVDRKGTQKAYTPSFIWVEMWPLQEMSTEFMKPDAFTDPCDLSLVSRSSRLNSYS
The experiment in a line: Telemetry (heart rate) in conscious SD rats. The format is in vivo. Conditions: conscious telemetered SD rats, single iv relaxin 1, 3 and 10 µg/kg, n = 5/group.

The target of assay [4] is T1, RXFP1. Nature of the assay: xCELLigence real time impedance in EA.hy926_RXFP1 cells. The format is cell-based. More on the design: expressed in transfected cells; host or cells: EA.hy926 (ATCC CRL-2922), lentiviral transduction, puromycin selection. The conditions noted are these: 10 nM, over 10 h. How it is done: Cell impedance assays in both wild type EA.hy926 and EA.hy926_RXFP1 cell lines were performed using a MP RCTA xCELLigence Analyzer (ACEA Biosciences) on E-Plates. 20,000 cells/well were seeded in E-plates in 200 µL of growth medium and left to settle for 30 min at room temperature. Plates were then placed into the xCELLigence RTCA MP Instrument under 5% CO2 at 37 °C and impedance was continuously measured every 15 min overnight. The next day, a 4-h serum starvation was performed using the same medium but with 0.1% FCS (impedance measurement every 5 min).
Data analysis was performed using RTCA2.0 software according to ACEA recommendations. Raw impedance expressed as cell index was normalized for each well by dividing individual Cell Index values by baseline Cell index values obtained 5 min before peptide treatment in order to obtain Normalized Cell Index (NCI): mean NCI from 4 replicates for each condition are presented.

*1 amine or outer side, *2 acyl side, *3 side chain or, on linkers, in order; H or OH if unused. Where a SMILES comes first, the peptide text is derived from it. Side-chain parts run from the residue outwards. [ ]: non-standard residue; d: D form. The star is where a group is joined. γGlu = O=C(O)[C@H](CCC(=O)[*:2])N[*:1]; Stearoyl = CCCCCCCCCCCCCCCCCC(=O)*; Nle = CCCC[C@H](N)C(=O)O; AEEA = NCCOCCOCC(=O)O; Aib = CC(C)(N)C(=O)O

For the compound `CCCCCCCCCCCCCCCCCC(=O)N[C@@H](CCC(=O)N[C@@H](CCC(=O)N[C@@H](CCC(=O)NCCOCCOCC(=O)NCCOCCOCC(=O)NCCOCCOCC(=O)NCCCC[C@H](NC(=O)[C@H](CCCCNC(C)=O)NC(=O)[C@H](CCCCN)NC(=O)[C@H](CCCNC(=N)N)NC(=O)C(C)(C)NC(=O)[C@H](CO)NC(=O)[C@H](Cc1c[nH]c2ccccc12)NC(=O)[C@@H](NC(=O)[C@H](CO)NC(=O)[C@H](CCCC)NC(=O)CNC(=O)[C@H](CCC(=O)O)NC(=O)C(C)(C)NC(=O)C(C)(C)NC(=O)[C@@H](NC(=O)[C@H](CCCCNC(C)=O)NC(=O)[C@H](C)NC(=O)[C@H](CCCNC(=N)N)NC(=O)[C@@H](NC(=O)[C@H](CCCCN)NC(=O)[C@H](CCC(=O)O)NC(=O)[C@H](CCCNC(=N)N)NC(=O)CNC(=O)[C@H](CCC(=O)O)NC(=O)[C@H](CC(C)C)NC(C)=O)C(C)C)[C@@H](C)CC)[C@@H](C)O)C(N)=O)C(=O)O)C(=O)O)C(=O)O` [SA10SC-RLX] (Ac-LEGREKVRAK(Ac)I[Aib][Aib]EG[Nle]STWS[Aib]RKK(Ac)K([AEEA-AEEA-AEEA-γGlu-γGlu-γGlu-Stearoyl])-NH2), the EC50 on RXFP1 [1] was determined as 0.19 nM.
As for relaxin, at RXFP1 [2], the cAMP activity entry was “activity was in the same range”. On RXFP1 [3], the “duration of the heart rate effect” value fell in the range of 4 to 6 h. Further, the “kinetics and shape of the RXFP1 activation signal (impedance)” value on RXFP1 [4] is given as “superimposable responses”.

As usually defined, the EC50 is the concentration needed to bring the measured effect to its halfway point.

Values taken from publication PMC9705314, “Characterization of a new potent and long-lasting single chain peptide agonist of RXFP1 in cells and in vivo translational models” (Scientific Reports, 2022).
